Assay results taken from ChEMBL document CHEMBL5352446, “Synthesis and biological evaluation of a novel c-Myc inhibitor against colorectal cancer via blocking c-Myc/Max heterodimerization and disturbing its DNA binding” (Eur J Med Chem, 2022).

Columns and labels:
[1] = system: HCT-15; assay: Antiproliferative activity against human HCT-15 cells incubated for 72 hrs by MTT assay; type: functional, cell-based; conditions: HCT-15, 72 h
[2] = system: HCT-8; assay: Antiproliferative activity against human HCT-8 cells incubated for 72 hrs by MTT assay; type: functional, cell-based; conditions: HCT-8, 72 h
[3] = system: HT-29; assay: Antitumor activity against human HT-29 cells xenografted in BALB/c mouse assessed as tumor growth inhibition at 40 mg/kg, ip administered daily for 3 weeks by caliper method; type: functional; conditions: HT-29, 504 h, read-out: TGI
[4] = Toxicity in BALB/c mouse xenografted with human HT-29 cells assessed as body weight loss at 40 mg/kg, ip measured after 12 days; type: organism-based; conditions: in vivo, 288 h, time 12 day
[5] = Toxicity in BALB/c mouse xenografted with human HT-29 cells assessed as heart damage at 40 mg/kg, ip measured after 21 days by H and E staining based assay; type: organism-based; conditions: in vivo, 504 h, time 21 day
[6] = Toxicity in BALB/c mouse xenografted with human HT-29 cells assessed as liver damage at 40 mg/kg, ip measured after 21 days by H and E staining based assay; type: organism-based; conditions: in vivo, 504 h, time 21 day
[7] = Toxicity in BALB/c mouse xenografted with human HT-29 cells assessed as lung damage at 40 mg/kg, ip measured after 21 days by H and E staining based assay; type: organism-based; conditions: in vivo, 504 h, time 21 day
[8] = Toxicity in BALB/c mouse xenografted with human HT-29 cells assessed as kidney damage at 40 mg/kg, ip measured after 21 days by H and E staining based assay; type: organism-based; conditions: in vivo, 504 h, time 21 day
[9] = system: HT-29; assay: cells; conditions: Homo sapiens, HT-29, 72 h
Description: Antiproliferative activity against human HT-29 cells incubated for 72 hrs by MTT assay

[10] = system: HCT-116; assay: cells; conditions: Homo sapiens, HCT-116, 72 h
Description: Antiproliferative activity against human HCT-116 cells incubated for 72 hrs by MTT assay

[11] = target: c-Myc/c-Max (Homo sapiens, UniProt P01106+P61244); assay: Inhibition of c-Myc to Max protein dimerization (unknown origin) by electrophoretic mobility shift assay
Chain of c-Myc/c-Max (P01106 whole entry): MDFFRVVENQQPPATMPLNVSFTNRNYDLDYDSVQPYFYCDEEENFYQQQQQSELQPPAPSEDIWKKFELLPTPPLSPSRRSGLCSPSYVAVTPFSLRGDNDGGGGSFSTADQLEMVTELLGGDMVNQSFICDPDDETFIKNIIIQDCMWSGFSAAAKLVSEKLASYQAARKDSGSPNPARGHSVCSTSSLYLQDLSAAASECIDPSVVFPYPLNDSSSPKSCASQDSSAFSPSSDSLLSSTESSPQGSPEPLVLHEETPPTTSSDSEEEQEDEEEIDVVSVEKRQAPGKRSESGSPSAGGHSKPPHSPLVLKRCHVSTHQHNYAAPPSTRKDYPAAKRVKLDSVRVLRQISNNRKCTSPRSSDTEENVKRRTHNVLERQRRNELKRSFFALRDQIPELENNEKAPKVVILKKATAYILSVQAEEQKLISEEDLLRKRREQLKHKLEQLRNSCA
Chain of c-Myc/c-Max (P61244 whole entry): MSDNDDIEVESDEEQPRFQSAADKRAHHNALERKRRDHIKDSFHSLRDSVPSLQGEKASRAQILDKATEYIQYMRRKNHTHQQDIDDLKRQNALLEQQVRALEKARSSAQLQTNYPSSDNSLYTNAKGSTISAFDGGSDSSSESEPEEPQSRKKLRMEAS

Row | Compound | IC50 [1] [µM] | IC50 [2] [µM] | inhibition in vivo at 40 mg/kg [3] [%] | Activity [4] | Activity [5] | Activity [6] | Activity [7] | Activity [8] | IC50 [9] [µM] | IC50 [10] [µM] | IC50 [11] [µM]
1 | O=c1[nH]cc(F)c(=O)[nH]1 [FLUOROURACIL] | 8.23 | > 20 | 50.2 | Toxic | Toxic | Toxic | Toxic | Toxic | 9.19 | 6.5 | 
2 | COc1cc(Oc2ccc(Nc3ccc(C(C)(C)C)cc3)cc2)cc(OC)c1CNCCc1ccc(C(F)(F)F)cc1 | 5.76 | 9.76 |  |  |  |  |  |  | 2.18 | 6.48 | 
3 | CCCCc1ccc(Nc2ccc(Oc3cc(OC)c(CNCCc4ccc(C(F)(F)F)cc4)c(OC)c3)cc2)cc1 | 4.86 | 4.98 |  |  |  |  |  |  | 1.75 | 3.1 | 
4 | COc1ccc(Nc2ccc(Oc3cc(OC)c(CNCCc4ccc(C(F)(F)F)cc4)c(OC)c3)cc2)cc1OC | 3.35 | 3.13 |  |  |  |  |  |  | 0.92 | 1.35 | 
5 | COc1cc(Oc2ccc(Nc3ccccc3)cc2)cc(OC)c1CNCCc1ccc(Br)cc1 | 6.97 | 7.13 |  |  |  |  |  |  | 2.38 | 2.96 | 
6 | COc1cc(Oc2ccc(Nc3ccc(CCO)cc3)cc2)cc(OC)c1CNCCc1ccc(C(F)(F)F)cc1 | 3.21 | 3.58 |  |  |  |  |  |  | 0.86 | 2.05 | 
7 | COc1cc(Oc2ccc(Nc3ccc(-c4cnc5ccccc5c4)cc3)cc2)cc(OC)c1CNCCc1ccc(C(F)(F)F)cc1 | 1.58 | 6.77 |  |  |  |  |  |  | 1.99 | 3.12 | 
8 | COc1cc(Oc2ccc(Nc3ccccc3)cc2)cc(OC)c1CNCCc1ccc(F)cc1 | 5.64 | 6.32 |  |  |  |  |  |  | 2.79 | 3.13 | 
9 | CCCc1ccc(Nc2ccc(Oc3cc(OC)c(CNCCc4ccc(C(F)(F)F)cc4)c(OC)c3)cc2)cc1 | 5.62 | 4.1 |  |  |  |  |  |  | 1.6 | 3.23 | 
10 | COc1cc(Oc2ccc(-c3ccc(Cl)cc3)cc2)cc(OC)c1CNCCc1ccc(C(F)(F)F)cc1 | 3.23 | 6.09 |  |  |  |  |  |  | 2.06 | 5.05 | 
11 | COc1cc(Oc2ccc(-c3ccc(Br)cc3)cc2)cc(OC)c1CNCCc1ccc(C(F)(F)F)cc1 | 2.23 | 8.75 |  |  |  |  |  |  | 2.57 | 2.71 | 
12 | COc1cc(Oc2ccc(Nc3ccccc3)cc2)cc(OC)c1CNCCc1ccc(N)cc1 | 5.65 | 6.21 |  |  |  |  |  |  | 2.65 | 2.87 | 
13 | COc1ccc(Nc2ccc(Oc3cc(OC)c(CNCCc4ccc(C(F)(F)F)cc4)c(OC)c3)cc2)cc1 | 6.37 | 4.22 |  |  |  |  |  |  | 1.41 | 1.91 | 
14 | COc1cc(Oc2ccc(Nc3ccccc3)cc2)cc(OC)c1CNCCc1ccc(C(F)(F)F)cc1 | 2.78 | 4.23 |  |  |  |  |  |  | 1.05 | 1.75 | 
15 | COc1cc(Oc2ccc(Nc3ccc(Cc4ccccc4)cc3)cc2)cc(OC)c1CNCCc1ccc(C(F)(F)F)cc1 | 4.48 | 6.57 |  |  |  |  |  |  | 1.13 | 5.21 | 
16 | COc1cc(Oc2ccc(Nc3ccc(Cl)cc3)cc2)cc(OC)c1CNCCc1ccc(C(F)(F)F)cc1 | 5.31 | 4.1 |  |  |  |  |  |  | 1.29 | 3.53 | 
17 | O=C(O)c1ccc(Nc2ccc([N+](=O)[O-])c3nonc23)cc1 |  |  |  |  |  |  |  |  |  |  | 33
18 | COc1cc(Oc2ccc(Nc3ccccc3)cc2)cc(OC)c1CNCCc1ccc(C)cc1 | 5.88 | 10.2 |  |  |  |  |  |  | 2.83 | 4.01 | 
19 | COc1cc(Oc2ccc(Nc3ccc(F)cc3)cc2)cc(OC)c1CNCCc1ccc(C(F)(F)F)cc1 | 6.23 | 5.32 |  |  |  |  |  |  | 1.47 | 3.4 | 
20 | COC(=O)c1ccc(Nc2ccc(Oc3cc(OC)c(CNCCc4ccc(C(F)(F)F)cc4)c(OC)c3)cc2)cc1 | 4.35 | 7.34 |  |  |  |  |  |  | 1.28 | 5.98 | 
21 | COc1cc(Oc2ccc(Nc3ccc(C(F)(F)F)cc3)cc2)cc(OC)c1CNCCc1ccc(C(F)(F)F)cc1 | 3.24 | 8.49 |  |  |  |  |  |  | 1.31 | 6.46 | 
22 | COc1ccc(Nc2ccc(Oc3cc(OC)c(CNCCc4ccc(C(F)(F)F)cc4)c(OC)c3)cc2)cc1C | 7.09 | 6.97 |  |  |  |  |  |  | 2.34 | 5.25 | 
